Reference: PubChem BioAssay (NCI)
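Growth conditions: 96-well plates. Treatment: test compound, 48 hours, 5 concentrations. Analysis: linear interpolation between bracketing concentrations; unreached endpoints set to highest concentration. GI50 marks 50% less growth. TGI: concentration producing complete growth inhibition.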

Experiments:
Experiment in all cases: growth of human tumour cells (NCI), 48 h
NCI-H460 lung = system: NCI-H460 lung
HOP-62 NSCLC = system: HOP-62 NSCLC
K-562 leukemia = system: K-562 leukemia
DU-145 prostate = system: DU-145 prostate
SR leukemia = system: SR leukemia
MALME-3M melanoma = system: MALME-3M melanoma
UACC-62 melanoma = system: UACC-62 melanoma
U251 CNS = system: U251 CNS
SNB-75 CNS = system: SNB-75 CNS
CCRF-CEM leukemia = system: CCRF-CEM leukemia
IGROV1 ovarian = system: IGROV1 ovarian
COLO 205 colon = system: COLO 205 colon
M14 melanoma = system: M14 melanoma
HT29 colon = system: HT29 colon
SK-MEL-5 melanoma = system: SK-MEL-5 melanoma
OVCAR-8 ovarian = system: OVCAR-8 ovarian
LOX IMVI melanoma = system: LOX IMVI melanoma
SN12C renal = system: SN12C renal
MDA-MB-435 = system: MDA-MB-435
OVCAR-5 ovarian = system: OVCAR-5 ovarian
SK-OV-3 ovarian = system: SK-OV-3 ovarian
T-47D breast = system: T-47D breast
UO-31 renal = system: UO-31 renal
A498 renal = system: A498 renal
HS 578T breast = system: HS 578T breast
HOP-92 NSCLC = system: HOP-92 NSCLC
SK-MEL-28 melanoma = system: SK-MEL-28 melanoma
SF-295 CNS = system: SF-295 CNS
NCI-H522 lung = system: NCI-H522 lung
786-0 renal = system: 786-0 renal
MCF7 breast = system: MCF7 breast
KM12 colon = system: KM12 colon
PC-3 prostate = system: PC-3 prostate
ACHN renal = system: ACHN renal
NCI/ADR-RES ovarian = system: NCI/ADR-RES ovarian
HL-60(TB) leukemia = system: HL-60(TB) leukemia
SF-268 CNS = system: SF-268 CNS
BT-549 breast = system: BT-549 breast
UACC-257 melanoma = system: UACC-257 melanoma
EKVX NSCLC = system: EKVX NSCLC
HCT-15 colon = system: HCT-15 colon
HCC-2998 colon = system: HCC-2998 colon
SW-620 colon = system: SW-620 colon
OVCAR-4 ovarian = system: OVCAR-4 ovarian
SNB-19 CNS = system: SNB-19 CNS
RXF 393 renal = system: RXF 393 renal
HCT-116 colon = system: HCT-116 colon
NCI-H226 lung = system: NCI-H226 lung
RPMI-8226 leukemia = system: RPMI-8226 leukemia
A549 NSCLC = system: A549 NSCLC
MOLT-4 leukemia = system: MOLT-4 leukemia
SK-MEL-2 melanoma = system: SK-MEL-2 melanoma
MDA-MB-231 breast = system: MDA-MB-231 breast
NCI-H23 lung = system: NCI-H23 lung
OVCAR-3 ovarian = system: OVCAR-3 ovarian
CAKI-1 renal = system: CAKI-1 renal
TK-10 renal = system: TK-10 renal
SF-539 CNS = system: SF-539 CNS

`CCN(CC)CCC(=O)c1ccc(Cl)c(Cl)c1` showed a TGI (NCI-H460 lung) greater than 100 µM, a TGI (HOP-62 NSCLC) greater than 100 µM and a TGI (K-562 leukemia) greater than 100 µM. It also gave a TGI (DU-145 prostate) greater than 100 µM, a TGI (SR leukemia) of 64.2 µM and a TGI (MALME-3M melanoma) of 41.7 µM. It also gave a TGI (UACC-62 melanoma) of 31 µM, a TGI (U251 CNS) greater than 100 µM and a TGI (SNB-75 CNS) of 80.1 µM. The TGI (CCRF-CEM leukemia) was 50.5 µM, the TGI (IGROV1 ovarian) was greater than 100 µM and the TGI (COLO 205 colon) was 91.4 µM. The TGI (M14 melanoma) was greater than 100 µM, the TGI (HT29 colon) was greater than 100 µM and the TGI (SK-MEL-5 melanoma) was 35.5 µM. For the same compound, the TGI (OVCAR-8 ovarian) was greater than 100 µM, the TGI (LOX IMVI melanoma) was 30.1 µM and the TGI (SN12C renal) was greater than 100 µM. The TGI (MDA-MB-435) was 30.8 µM, the TGI (OVCAR-5 ovarian) was greater than 100 µM and the TGI (SK-OV-3 ovarian) was greater than 100 µM. For the same compound, the TGI (T-47D breast) was 51.1 µM, the TGI (UO-31 renal) was greater than 100 µM and the TGI (A498 renal) was 76 µM. The TGI (HS 578T breast) was 45.9 µM, the TGI (HOP-92 NSCLC) was 30.6 µM and the TGI (SK-MEL-28 melanoma) was 30.5 µM. For the same compound, the TGI (SF-295 CNS) was greater than 100 µM, the TGI (NCI-H522 lung) was 32.8 µM and the TGI (786-0 renal) was 31.9 µM. It also gave a TGI (MCF7 breast) of 28.8 µM, a TGI (KM12 colon) greater than 100 µM and a TGI (PC-3 prostate) greater than 100 µM. The TGI (ACHN renal) was greater than 100 µM, the TGI (NCI/ADR-RES ovarian) was greater than 100 µM and the TGI (HL-60(TB) leukemia) was greater than 100 µM. For the same compound, the TGI (SF-268 CNS) was 63.4 µM, the TGI (BT-549 breast) was 36.3 µM and the TGI (UACC-257 melanoma) was greater than 100 µM. The TGI (EKVX NSCLC) was greater than 100 µM, the TGI (HCT-15 colon) was greater than 100 µM and the TGI (HCC-2998 colon) was greater than 100 µM. The TGI (SW-620 colon) was 41.3 µM, the TGI (OVCAR-4 ovarian) was greater than 100 µM and the TGI (SNB-19 CNS) was greater than 100 µM. The TGI (RXF 393 renal) was 25.3 µM, the TGI (HCT-116 colon) was 68.3 µM and the TGI (NCI-H226 lung) was greater than 100 µM. For the same compound, the TGI (RPMI-8226 leukemia) was greater than 100 µM, the TGI (A549 NSCLC) was greater than 100 µM and the TGI (MOLT-4 leukemia) was 82.8 µM.
For `Cc1cc(NS(=O)(=O)c2ccc(-c3cnc(C4CC4)o3)cc2)ccc1Cl`, the GI50 (NCI-H460 lung) was 0.297 µM, the TGI (NCI-H460 lung) was 11.1 µM and the GI50 (SK-MEL-2 melanoma) was 0.445 µM. It also gave a TGI (SK-MEL-2 melanoma) of 20.3 µM, a GI50 (HOP-62 NSCLC) of 0.313 µM and a TGI (HOP-62 NSCLC) of 17 µM. For the same compound, the GI50 (MDA-MB-231 breast) was 0.794 µM, the TGI (MDA-MB-231 breast) was 12.2 µM and the GI50 (K-562 leukemia) was 0.0567 µM. For the same compound, the TGI (K-562 leukemia) was greater than 100 µM, the GI50 (DU-145 prostate) was 0.455 µM and the TGI (DU-145 prostate) was 15.1 µM. For the same compound, the GI50 (SR leukemia) was 0.0919 µM, the TGI (SR leukemia) was 45.6 µM and the GI50 (MALME-3M melanoma) was 12.1 µM. The TGI (MALME-3M melanoma) was 26.5 µM, the GI50 (UACC-62 melanoma) was 0.117 µM and the TGI (UACC-62 melanoma) was 12.3 µM. It also gave a GI50 (U251 CNS) of 0.368 µM, a TGI (U251 CNS) of 14.9 µM and a GI50 (SNB-75 CNS) of 0.12 µM. The TGI (SNB-75 CNS) was 0.643 µM, the GI50 (CCRF-CEM leukemia) was 0.274 µM and the TGI (CCRF-CEM leukemia) was greater than 41.1 µM. The GI50 (IGROV1 ovarian) was 0.335 µM, the TGI (IGROV1 ovarian) was 13 µM and the GI50 (NCI-H23 lung) was 0.57 µM. It also gave a TGI (NCI-H23 lung) of 15.6 µM, a GI50 (COLO 205 colon) of 0.305 µM and a TGI (COLO 205 colon) of 5.8 µM. It also gave a GI50 (M14 melanoma) of 0.192 µM, a TGI (M14 melanoma) of 15.9 µM and a GI50 (HT29 colon) of 0.191 µM. For the same compound, the TGI (HT29 colon) was 3.89 µM, the GI50 (SK-MEL-5 melanoma) was 0.253 µM and the TGI (SK-MEL-5 melanoma) was 11.5 µM. For the same compound, the GI50 (OVCAR-8 ovarian) was 0.552 µM, the TGI (OVCAR-8 ovarian) was 17.7 µM and the GI50 (LOX IMVI melanoma) was 0.386 µM. For the same compound, the TGI (LOX IMVI melanoma) was 14 µM, the GI50 (SN12C renal) was 0.961 µM and the TGI (SN12C renal) was 13.9 µM. It also gave a GI50 (OVCAR-5 ovarian) of 0.748 µM, a TGI (OVCAR-5 ovarian) of 15 µM and a GI50 (SK-OV-3 ovarian) of 0.868 µM. The TGI (SK-OV-3 ovarian) was 20.8 µM, the GI50 (T-47D breast) was 0.323 µM and the TGI (T-47D breast) was 23.3 µM. It also gave a GI50 (UO-31 renal) of 0.835 µM, a TGI (UO-31 renal) of 12.5 µM and a GI50 (A498 renal) of 0.0828 µM. The TGI (A498 renal) was 0.676 µM, the GI50 (HS 578T breast) was 0.233 µM and the TGI (HS 578T breast) was 11.5 µM. For the same compound, the GI50 (HOP-92 NSCLC) was 0.472 µM, the TGI (HOP-92 NSCLC) was 10.1 µM and the GI50 (SK-MEL-28 melanoma) was 2.87 µM. The TGI (SK-MEL-28 melanoma) was 20 µM, the GI50 (SF-295 CNS) was 0.0995 µM and the TGI (SF-295 CNS) was 2.57 µM. The GI50 (OVCAR-3 ovarian) was 0.0745 µM, the TGI (OVCAR-3 ovarian) was 11.4 µM and the GI50 (NCI-H522 lung) was 0.0761 µM. For the same compound, the TGI (NCI-H522 lung) was 3.38 µM, the GI50 (786-0 renal) was 0.605 µM and the TGI (786-0 renal) was 17.8 µM. The GI50 (MCF7 breast) was 0.0708 µM, the TGI (MCF7 breast) was 12.2 µM and the GI50 (KM12 colon) was 0.187 µM. The TGI (KM12 colon) was 13.4 µM, the GI50 (PC-3 prostate) was 0.272 µM and the TGI (PC-3 prostate) was 15.3 µM. It also gave a GI50 (ACHN renal) of 0.586 µM, a TGI (ACHN renal) of 14.6 µM and a GI50 (NCI/ADR-RES ovarian) of 0.181 µM. For the same compound, the TGI (NCI/ADR-RES ovarian) was 12.5 µM, the GI50 (HL-60(TB) leukemia) was 0.232 µM and the TGI (HL-60(TB) leukemia) was 1.23 µM. For the same compound, the GI50 (SF-268 CNS) was 2.19 µM, the TGI (SF-268 CNS) was 19.9 µM and the GI50 (BT-549 breast) was 1.06 µM. The TGI (BT-549 breast) was 16.6 µM, the GI50 (UACC-257 melanoma) was 1.77 µM and the TGI (UACC-257 melanoma) was 18.2 µM. For the same compound, the GI50 (CAKI-1 renal) was 0.0908 µM, the TGI (CAKI-1 renal) was 15.5 µM and the GI50 (EKVX NSCLC) was 0.557 µM. The TGI (EKVX NSCLC) was 17.1 µM, the GI50 (HCT-15 colon) was 0.116 µM and the TGI (HCT-15 colon) was 12.7 µM. It also gave a GI50 (HCC-2998 colon) of 1.23 µM, a TGI (HCC-2998 colon) of 11.7 µM and a GI50 (SW-620 colon) of 0.13 µM. The TGI (SW-620 colon) was 15 µM, the GI50 (OVCAR-4 ovarian) was 1.86 µM and the TGI (OVCAR-4 ovarian) was 19.5 µM. For the same compound, the GI50 (SNB-19 CNS) was 0.362 µM, the TGI (SNB-19 CNS) was 16.3 µM and the GI50 (RXF 393 renal) was 0.173 µM. It also gave a TGI (RXF 393 renal) of 3.13 µM, a GI50 (HCT-116 colon) of 0.264 µM and a TGI (HCT-116 colon) of 13.4 µM. It also gave a GI50 (TK-10 renal) of 1.11 µM, a TGI (TK-10 renal) of 16 µM and a GI50 (SF-539 CNS) of 0.281 µM. It also gave a TGI (SF-539 CNS) of 4.09 µM, a GI50 (NCI-H226 lung) of 0.985 µM and a TGI (NCI-H226 lung) of 17.5 µM. It also gave a GI50 (RPMI-8226 leukemia) of 0.329 µM, a TGI (RPMI-8226 leukemia) greater than 52.1 µM and a GI50 (A549 NSCLC) of 0.437 µM. For the same compound, the TGI (A549 NSCLC) was 14.9 µM, the GI50 (MOLT-4 leukemia) was 0.525 µM and the TGI (MOLT-4 leukemia) was 46.8 µM.
